Measurements reported in US7815946B1, “Anti-diabetic and cholesterol lowering preparation from fenugreek seeds” (priority 2001, dated 2010).

Legend:
[1] = tested on: diabetic rabbits; assay: Comparison of Menthi, trigonelline and tolbutamide on glucose tolerance; assay type: in vivo, rabbit; settings: 100 mg/kg/day for 3 days
Method: The antidiabetic activity of GII (Menthi) and the alkaloid trigonelline, which can be isolated from fenugreek seeds, were compared. Diabetic rabbits were administered the same dose (100 mg/kg/day) daily for 3 days. The activity of these two was also compared with a standard drug tolbutamide all at the same dosage schedule of 100 mg/Kg/day for 3 days.

[2] = reported by Mishinsky; cited from earlier work
[3] = tested on: diabetic rabbits; settings: cited from earlier work

CCCCNC(=O)NS(=O)(=O)c1ccc(C)cc1 [Tolbutamide, tolbutamide]
% Decrease in Blood Glucose Level at 2.5 Hours in GTT [1]: 25%

C[n+]1cccc(C(=O)[O-])c1 [Trigonelline, trigonelline]
hypoglycemic activity [2]: only mild and transient hypoglycemic activity | % Decrease in Blood Glucose Level at 2.5 Hours in GTT [1]: 16%

fenugreekine
blood glucose during GTT [3]: could not lower blood glucose
